Laboratory results: PubChem BioAssay (NCI)
Where “and” joins values, the source holds several entries; their conditions need not be identical. Identical values can stand only once.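 Exposure lasted 48 hours, with cells grown in 96-well plates and compounds tested at five concentrations. GI50 = concentration required for 50% inhibition of growth. Definition used: TGI = concentration required for complete inhibition of growth.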

Experiments:
Assay in all cases: NCI-60 cell line screen, 48 h
SW-620 colon = tested on: SW-620 colon
786-0 renal = tested on: 786-0 renal
RPMI-8226 leukemia = tested on: RPMI-8226 leukemia
NCI-H226 lung = tested on: NCI-H226 lung
HCC-2998 colon = tested on: HCC-2998 colon
EKVX NSCLC = tested on: EKVX NSCLC
OVCAR-8 ovarian = tested on: OVCAR-8 ovarian
DU-145 prostate = tested on: DU-145 prostate
OVCAR-4 ovarian = tested on: OVCAR-4 ovarian
NCI-H23 lung = tested on: NCI-H23 lung

Structure (SMILES)	GI50 (SW-620 colon) [µM]	TGI (SW-620 colon) [µM]	GI50 (786-0 renal) [µM]	TGI (786-0 renal) [µM]	GI50 (RPMI-8226 leukemia) [µM]	TGI (RPMI-8226 leukemia) [µM]	GI50 (NCI-H226 lung) [µM]	TGI (NCI-H226 lung) [µM]	GI50 (HCC-2998 colon) [µM]	TGI (HCC-2998 colon) [µM]	GI50 (EKVX NSCLC) [µM]	TGI (EKVX NSCLC)	GI50 (OVCAR-8 ovarian) [µM]	TGI (OVCAR-8 ovarian) [µM]	GI50 (DU-145 prostate) [µM]	TGI (DU-145 prostate) [µM]	GI50 (OVCAR-4 ovarian) [µM]	TGI (OVCAR-4 ovarian) [µM]	GI50 (NCI-H23 lung) [µM]	TGI (NCI-H23 lung) [µM]
CCN(CC)CCOc1ccc(C(=O)/C=C\c2ccc(Cl)cc2Cl)cc1	1.87	4.36	6.44	20.3	1.94	6.34	11.3	26.6	2.18	4.65	12.6	25.1 µM	13.4	28.1	10.3	22	3.82	16.6	7.15	22.1
O=C(Nc1ccc(I)cc1F)c1cc(Cl)ccc1O	0.737	12.7	2.19	7.18	0.28	1.28	1.17	4.89	3.14	10.1	1.03	6.81 µM	0.623	11	0.681	> 100	0.356	6.4	0.386	3.79
COC(=O)[C@@H](C)C[C@H](Cc1ccccc1)NC(=O)c1csc([C@@H](C[C@H](C(C)C)N(C)C(=O)[C@H](C)NC(=O)[C@H]2CCCCN2C)OC(C)=O)n1	0.861	> 25	1.05	> 25	0.567	> 25	> 25	> 25	1.75	> 25	5.74	> 25 µM	3.67	> 25	1.05	> 25	2.05	> 25	7.55	> 25
O=C1OC(c2ccccc2)=N/C1=C\c1cccc(F)c1	–	> 100	–	> 100	–	50.1	–	92.8	–	> 100	–	> 100 µM	–	64.9	–	> 100	–	94.9	–	> 100
CNC(=O)OCC1C2=C(C(=O)C(C)=C(N)C2=O)N2CC3C(N3C)C12OC (configuration not stated)	–	24.2	–	21.2	–	> 100	–	> 100	–	24.8	–	> 100 µM	–	> 100	–	55	–	33	–	16.3
CC(=O)Oc1ccc(C(c2ccc(OC(C)=O)cc2)c2ccccn2)cc1	–	> 100	–	> 100	30.3	> 100	40.2	> 100	11.3	> 100	–	> 100 µM and 57.1 µM	21.8	> 100	98.2	> 100	0.287	4.42	5.08	> 100
O=C1NCCS(=O)(=O)/C1=C\C=C\c1cccc(C(F)(F)F)c1	2.65	7.56	2.64	7.67	2.19	8.31	2.75	7.65	1.93	3.72	4.31	16.5 µM	3.46	16.8	2.96	13.6	4.84	19.2	1.94	8.02
Cc1cccc2c(N)c3ccccc3nc12	0.699	11.9	1.54	7.49	2.47	6.73	1.44	6.19	1.24	4.35	2.76	9.99 µM	0.94	10.7	1.53	12.3	1.69	11.7	1.81	7.49
